{"source": "patent US11191746B2", "about": "“Composition for inhibiting a growth of cancer stem cells comprising ciclesonide” (JEJU NATIONAL UNIVERSITY INDUSTRY-ACADEMIC COOPERATION …, priority 2016, dated 2021)", "key": {"Nanog [1]": {"system": "Nanog", "assay": "Real-time PCR of CSC markers in tumorspheres", "assay_type": "cell-based, human", "details": "RT-PCR, vs group not treated", "method": "(§1) The levels of transcripts were measured with a One Step SYBR PrimeScript RT-PCR kit (Takara, Tokyo, Japan) using SYBR green as a double-stranded DNA-specific dye in accordance with the manufacturer's protocol. One-step RT-PCR was performed on 1 μg of total RNA, 10 μl of 2× One Step SYBR RT-PCR Buffer IV, and 1 μl of PrimeScript 1 step Enzyme Mix II using PCR forward and reverse primers of each of CD44, NANOG, OCT4, C-myc, Sox2, Snail, and β-actin at a final volume of 20 μl per reaction.\n(§2) The relative expression level of mRNA of the target gene was calculated using a comparative CT method. At least three independent PCR procedures were performed in accordance with statistical analysis. PCR products were normalized with the […] gene as an internal control."}, "Sox2 [2]": {"system": "Sox2", "assay": "Real-time PCR of CSC markers in tumorspheres", "assay_type": "cell-based, human", "details": "RT-PCR, vs group not treated", "method": "as §1, §2"}, "Snail": {"system": "Snail", "assay": "Real-time PCR of CSC markers in tumorspheres", "assay_type": "cell-based, human", "details": "RT-PCR, vs group not treated", "method": "as §1, §2"}, "C-myc [3]": {"system": "C-myc", "assay": "Real-time PCR of CSC markers in tumorspheres", "assay_type": "cell-based, human", "details": "RT-PCR, vs group not treated", "method": "as §1, §2"}, "[4]": {"system": "A549 cell-derived tumorspheres", "assay": "Tumorsphere formation", "assay_type": "cell-based, human", "details": "A549 primary tumorspheres", "method": "Human lung cancer cells, A549, were cultured under the same culture conditions as those for the breast cancer cells of Example 2-1. To establish primary tumorspheres, single cell-suspended A549 cells were inoculated into ultra-low attachment 6-well plates containing 2 ml of Cancer Stem Premium medium (ProMab Biotechnologies Inc, Richmond, Calif., USA) at a density of 5×10^4 cells/well. The cells were incubated in a 5% CO2 incubator at 37° C. for 10 days.\nLung cancer tumorspheres were counted in the same manner as in Example 3-1, and for the analysis of tumorsphere formation, tumorsphere formation efficiency (TFE, %) was determined by the following equation: TFE (%)=number of tumorspheres per well/total number of plated cells per well×100."}, "CD44": {"system": "CD44", "assay": "Real-time PCR of self-renewing genes in mammospheres", "assay_type": "cell-based, human", "details": "RT-PCR, β-actin internal control", "method": "as §1, §2"}, "Nanog [5]": {"system": "Nanog", "assay": "Real-time PCR of self-renewing genes in mammospheres", "assay_type": "cell-based, human", "details": "RT-PCR, β-actin internal control", "method": "as §1, §2"}, "Oct4": {"system": "Oct4", "assay": "Real-time PCR of self-renewing genes in mammospheres", "assay_type": "cell-based, human", "details": "RT-PCR, β-actin internal control", "method": "as §1, §2"}, "Sox2 [6]": {"system": "Sox2", "assay": "Real-time PCR of self-renewing genes in mammospheres", "assay_type": "cell-based, human", "details": "RT-PCR, β-actin internal control", "method": "as §1, §2"}, "C-myc [7]": {"system": "C-myc", "assay": "Real-time PCR of self-renewing genes in mammospheres", "assay_type": "cell-based, human", "details": "RT-PCR, β-actin internal control", "method": "as §1, §2"}, "IL-8": {"system": "IL-8", "assay": "Human inflammatory cytokine assay (CBA), tumorspheres", "assay_type": "cell-based", "details": "A549 tumorspheres", "method": "Mixed capture beads were vortexed and 50 μl of beads were added to assay tubes. 50 μl of human inflammatory cytokine standard and the cultured tumorsphere solution were added to the assay tubes, and then mixed with a cytokine PE solution. After 3 hours, the mixed solution was washed and analyzed by flow cytometry (Accuri C6, BD, San Diego, Calif., USA)."}, "[8]": {"system": "A549 cell xenograft tumor", "assay": "Lung cancer xenograft model in NOD-SCID male nude mice", "assay_type": "in vivo", "details": "10 mg/kg", "method": "A total of 12 NOD-SCID (BALB/cSIc (nu/nu)) male nude mice producing lung cancer cells were divided into two groups. […] The volume of tumors of each control mouse was measured every three days and calculated by the following equation: (width×length^2)/2. The other six nude mice received neoadjuvant chemotherapy using a test drug by infusion at an optimum dose of 10 mg/kg/day."}, "tumorspheres": {"system": "tumorspheres", "assay": "Tumorsphere proliferation (cell counting)", "assay_type": "cell-based, human", "details": "tumorspheres treated 2 days, single cells replated and counted on days 1 to 3", "method": "FIG. 11B illustrates the effect of ciclesonide on tumorsphere formation wherein ciclesonide inhibits the growth of tumorspheres, tumorspheres having been treated with ciclesonide or DMSO for 2 days were separated into single cells and plated in 6 cm dishes at the same density, 24 hours after plating, the cells were counted, on days 1, 2, and 3, the cells were counted three times, and plotted as mean values, and the data was expressed as the mean±SD for the three independent experimental results. *p<0.05 vs. DMSO-treated control; and […]"}, "[9]": {"system": "MCF-7 cell-derived mammospheres", "assay": "Mammosphere formation", "assay_type": "cell-based, human", "method": "(§3) Human breast cancer cells, MCF-7, were obtained from American Type Culture Collection (ATCC; Manassas, Va., USA). MCF-7 cells and MDA-MB-231 cells were cultured in Dulbecco's Modified Essential Medium (DMEM; Hyclone, Logan, Utah, USA) containing 10% fetal bovine serum (FBS; Hyclone), 100 U/ml of penicillin, and 100 μg/ml of streptomycin (Hyclone). The MCF-7 cells were maintained in a humidified incubator containing 5% CO2 at 37° C. The cells were plated in 10 cm culture dishes at a density of 1×10^6 cells. To establish primary mammospheres, single cell-suspended MCF-7 cells were inoculated into ultra-low attachment 6-well plates containing 2 ml of complete MammoCult™ medium (StemCell Technologies, Vancouver, BC, Canada) at a density of 3.5 to 4×10^4 cells/well. The complete MammoCult™ medium was supplemented with 4 μg/ml of heparin, 0.48 μg/ml of hydrocortisone, 100 U/ml of penicillin, and 100 μg/ml of streptomycin. The cells were incubated in a 5% CO2 incubator at 37° C. for 7 days.\n(§4) On day 10 of culture, cell culture plates were placed on a scanner (Epson Perfection V700 PHOTO, Epson Korea, Co, Seoul, Korea) to obtain 8-bit gray scale images of mammospheres. The images were acquired using a NICE software program downloaded from ftp://ftp.nist.gov/pub/physics/mlclarke/NICE at a low resolution of 300 dpi. For counting, a desired number of rows and columns (e.g., 2×3 for a 6-well plate) were selected to generate ROIs and after selecting the elliptical setting of the NICE program, the individual ROIs were defined by adjusting the movement and size of the provided ROI shapes. The background signals of the images were negated using a threshold algorithm, and the selected images were automatically counted. To analyze the formation of mammospheres, mammosphere formation efficiency (MFE, %) was determined by the following equation: MFE (%)=the number of mammospheres per well/a total number of plated cells per well×100."}, "[10]": {"system": "MDA-MB-231 cell-derived mammospheres", "assay": "Mammosphere formation", "assay_type": "cell-based, human", "method": "as §3, §4"}}}
{"smiles": "CC(C)C(=O)OCC(=O)[C@@]12O[C@H](C3CCCCC3)O[C@@H]1C[C@H]1[C@@H]3CCC4=CC(=O)C=C[C@]4(C)[C@H]3[C@@H](O)C[C@@]12C", "note": "[ciclesonide]", "values": [{"measurement": "expression of Nanog", "setting": "Nanog [1]", "value": "reduced"}, {"measurement": "expression of Sox2", "setting": "Sox2 [2]", "value": "reduced"}, {"measurement": "expression of Snail", "setting": "Snail", "value": "reduced"}, {"measurement": "expression of C-myc", "setting": "C-myc [3]", "value": "reduced"}, {"measurement": "size of the tumorspheres", "setting": "[4]", "value": "significantly reduced"}, {"measurement": "reduction of the number of tumorspheres", "setting": "[4]; 5 μM and 10 μM", "value": 90, "unit": "%"}, {"measurement": "expression of CD44", "setting": "CD44", "value": "reduced"}, {"measurement": "expression of Nanog", "setting": "Nanog [5]", "value": "reduced"}, {"measurement": "expression of Oct4", "setting": "Oct4", "value": "reduced"}, {"measurement": "expression of Sox2", "setting": "Sox2 [6]", "value": "reduced"}, {"measurement": "expression of C-myc", "setting": "C-myc [7]", "value": "reduced"}, {"measurement": "production level of IL-8", "setting": "IL-8", "value": "reduced"}, {"measurement": "tumor volume vs control not treated", "setting": "[8]", "value": "smaller"}, {"measurement": "tumor weight vs control not treated", "setting": "[8]", "value": "smaller"}, {"measurement": "growth of tumorspheres (number of survived cancer cells)", "setting": "tumorspheres", "value": "inhibited"}, {"measurement": "growth of breast cancer stem cells", "setting": "[9]; MCF-7 mammospheres, 10 μM", "value": "significantly inhibited"}, {"measurement": "size of the mammospheres", "setting": "[9]; MCF-7 primary mammospheres", "value": "reduced"}, {"measurement": "reduction of the number of mammospheres", "setting": "[9]; MCF-7 primary mammospheres, 5 μM or 10 μM, 7 days", "value": 90, "unit": "%"}, {"measurement": "growth of breast cancer stem cells", "setting": "[10]; MDA-MB-231 mammospheres, 10 μM", "value": "significantly inhibited"}, {"measurement": "size of the mammospheres", "setting": "[10]; MDA-MB-231 primary mammospheres", "value": "reduced"}, {"measurement": "reduction of the number of mammospheres", "setting": "[10]; MDA-MB-231 primary mammospheres, 10 μM, 7 days", "value": 90, "unit": "%"}]}
